Compound: c1ccc(CSSCc2ccccc2)cc1
- solubility (mole fraction) (in chloroform, 284.95 K): 0.102
- solubility (mole fraction) (in chloroform, 288.75 K): 0.131
- solubility (mole fraction) (in chloroform, 292.75 K): 0.16
- solubility (mole fraction) (in chloroform, 298.65 K): 0.208
- solubility (mole fraction) (in chloroform, 302.6 K): 0.246
- solubility (mole fraction) (in chloroform, 308.15 K): 0.291
- solubility (mole fraction) (in ethanol, 284.7 K): 0.000168
- solubility (mole fraction) (in ethanol, 289.45 K): 0.000398
- solubility (mole fraction) (in ethanol, 294.45 K): 0.000905
- solubility (mole fraction) (in ethanol, 299.55 K): 0.0019
- solubility (mole fraction) (in ethanol, 303.25 K): 0.00301
- solubility (mole fraction) (in ethanol, 308.25 K): 0.00524
- solubility (mole fraction) (in ethyl acetate, 285.55 K): 0.0332
- solubility (mole fraction) (in ethyl acetate, 289.95 K): 0.05
- solubility (mole fraction) (in ethyl acetate, 293.65 K): 0.0667
- solubility (mole fraction) (in ethyl acetate, 298.8 K): 0.0963
- solubility (mole fraction) (in ethyl acetate, 303.65 K): 0.131
- solubility (mole fraction) (in ethyl acetate, 308.4 K): 0.164
- solubility (mole fraction) (in n-hexane, 284.25 K): 0.000922
- solubility (mole fraction) (in n-hexane, 288.35 K): 0.0019
- solubility (mole fraction) (in n-hexane, 294.45 K): 0.00448
- solubility (mole fraction) (in n-hexane, 298.25 K): 0.00739
- solubility (mole fraction) (in n-hexane, 303.65 K): 0.0137
- solubility (mole fraction) (in n-hexane, 309.05 K): 0.0223
- solubility (mole fraction) (in toluene, 283.45 K): 0.0521
- solubility (mole fraction) (in toluene, 288.16 K): 0.0769
- solubility (mole fraction) (in toluene, 292.65 K): 0.103
- solubility (mole fraction) (in toluene, 299.35 K): 0.162
- solubility (mole fraction) (in toluene, 303.15 K): 0.198
- solubility (mole fraction) (in toluene, 308.65 K): 0.248

From BigSolDB 2.1
